The record followed here is patent publication US4711952A, “Serum thymic factor peptide analogs and process for the preparation thereof” (SPOFA, spojene podniky pro zdravotnickouvyrobu, priority 1984, dated 1987).

Non-standard residues stand in square brackets, D forms with d. Residues, ends and D or L forms follow the SMILES beside them. No end group written: not given here. pGlu = O=C1CC[C@@H](C(=O)O)N1

For this test, the system named is Flymphocytes. The test can be described thus: Recovery assay of Flymphocytes (in vitro). It is filed as cell-based. Particulars: positive for immunostimulation and negative for immunosuppression. The text has this: As is evident from the general formula I in comparison with the above structure of the natural substance, the compounds of the present invention, besides optional shortening at the N-terminus, comprise a C-terminal augmentation predominantly by an additional amino-acid residue or residues bearing an amide moiety.
Consider `C[C@H](NC(=O)[C@@H]1CCC(=O)N1)C(=O)N[C@@H](CCCCN)C(=O)N[C@@H](CO)C(=O)N[C@@H](CCC(N)=O)C(=O)NCC(=O)NCC(=O)N[C@@H](CO)C(=O)N[C@@H](CC(N)=O)C(=O)NCC(N)=O` ([pGlu]AKSQGGSNG-NH2), for which the “Recovery Assay of Flymbocytes differential count” value is listed as 6.31%.

For the compound `C[C@H](NC(=O)[C@@H]1CCC(=O)N1)C(=O)N[C@@H](CCCCN)C(=O)N[C@@H](CO)C(=O)N[C@@H](CCC(N)=O)C(=O)NCC(=O)NCC(=O)N[C@@H](CO)C(=O)N[C@@H](CC(N)=O)C(=O)N[C@@H](Cc1ccccc1)C(N)=O` [p-Glu--D-Gln--E--PheNH2, Pyroglutamyl-alanyl-lysyl-seryl-glutaminyl-glycyl-glycyl-seryl-asparaginyl-phenylalanine amide] ([pGlu]AKSQGGSNF-NH2), the “Recovery Assay of Flymbocytes differential count” value was determined as 7.54%.

In the case of `NC(=O)CNC(=O)[C@H](CC(N)=O)NC(=O)[C@H](CO)NC(=O)CNC(=O)CNC(=O)[C@@H]1CCC(=O)N1` [p-Glu--E--GlyNH2, Pyroglutamyl-glycyl-glycyl-seryl-asparaginyl-glycine amide] ([pGlu]GGSNG-NH2), the “Recovery Assay of Flymbocytes differential count” value was 6.35%.

As to `NC(=O)C[C@H](NC(=O)[C@H](CO)NC(=O)CNC(=O)CNC(=O)[C@@H]1CCC(=O)N1)C(=O)N[C@@H](Cc1ccccc1)C(N)=O` [p-Glu--E--PheNH2, Pyroglutamyl-glycyl-glycyl-seryl-asparaginyl-phenylalanine amide] ([pGlu]GGSNF-NH2), the “Recovery Assay of Flymbocytes differential count” value was 2.89%.

As to “AKSQGGSNF-NH2 [D-Gln--E--PheNH2, Alanyl-lysyl-seryl-glutaminyl-glycyl-glycyl-seryl-asparaginyl-phenylalanine amide]”, the “Recovery Assay of Flymbocytes differential count” value is reported as 16.09%.

As to “AKSQGGSNG-NH2 [D-Gln--E--GlyNH2, Alanyl-lysyl-seryl-glutaminyl-glycyl-glycyl-seryl-asparaginyl-glycine amide]”, the “Recovery Assay of Flymbocytes differential count” value is reported as 12.75%.
